Six compounds from US5696245A, “Fructofuranosyl substituted polymers and methods for their production” (The University of Montana, priority 1995, dated 1997) can be followed below.

The nature of data set [1]: Solubility of Estriol in water in presence of CD's and Fru-CD's. It is filed as physicochemical. The procedure: (§1) The solubilities of 2 and 4 were determined as were their respective abilities to solubilize a slightly soluble drug.
Solubility of Estriol in Water in
Presence of CD's and Fru-CD's at 20° C.
Solubility in 1.5 × 10^-2 M CD

In data set [2] the test system is invertase. In words: Inhibition of invertase (hydrolysis of sucrose). Type of data set: biochemical. Particulars: for inhibition of invertase: 1:1 mole ratio with sucrose. From the text: Reference is now made to the drawings accompanying the application wherein the sole Figure is a graph showing the action of invertase on sucrose in the presence of cyclodextrins and fructosyl cyclodextrins.
(§2) No inhibition was manifested by the parent CD's. […] Furthermore, provided that the Fru-α-CD is capable of transport to regions of plants or of plant cells, where invertase action occurs, then it is a potent plant growth regulator.

Data set [3] concerns invertase. In words: Hydrolysis by invertase. Type of data set: biochemical. Particulars: conditions of complete sucrose hydrolysis in 30 minutes.
Description: as §2

A short description of data set [4]: Solubility in water of CD's and Fru-CD's. To be noted: 21° C. ± 1° C. Type of data set: physicochemical. Here is the method: as §1
^a determined at 21° C. ± 1° C.

Values after ≈ are worked out from the molar mass of the structure shown.

As for `C[C@]12CC[C@@H]3c4ccc(O)cc4CC[C@H]3[C@@H]1C[C@@H](O)[C@@H]2O` [Estriol, reference compound], the solubility (as a rule, the concentration that dissolves in the medium under given conditions) in data set [1] (water without CD, 20° C.) stood at 0.023 mg/mL.
Take `OC[C@H]1O[C@@](CO)(OC[C@H]2O[C@@H]3O[C@H]4[C@H](O)[C@@H](O)[C@@H](O[C@H]5[C@H](O)[C@@H](O)[C@@H](O[C@H]6[C@H](O)[C@@H](O)[C@@H](O[C@H]7[C@H](O)[C@@H](O)[C@@H](O[C@H]8[C@H](O)[C@@H](O)[C@@H](O[C@H]2[C@H](O)[C@H]3O)O[C@@H]8CO)O[C@@H]7CO)O[C@@H]6CO)O[C@@H]5CO)O[C@@H]4CO)[C@@H](O)[C@@H]1O` [compound 4, 6-O-(β-D-fructofuranosyl) cyclohexaamylose]: the inhibition of invertase entry in the data set with invertase [2] is on record as “to a much greater extent, 4 demonstrated inhibition of invertase”. The “type of invertase inhibition” value in the data set with invertase [2] (hydrolysis of sucrose by invertase, detailed kinetic study still required) was “appears to be a non-reversible inhibitor”. In addition, the hydrolysis by invertase result with invertase [3] is “unaffected by invertase”. Also, the Solubility in water in data set [4] was found to be 1054 mg/mL (≈ 929 mM).
Consider `OC[C@H]1O[C@@H]2O[C@H]3[C@H](O)[C@@H](O)[C@@H](O[C@H]4[C@H](O)[C@@H](O)[C@@H](O[C@H]5[C@H](O)[C@@H](O)[C@@H](O[C@H]6[C@H](O)[C@@H](O)[C@@H](O[C@H]7[C@H](O)[C@@H](O)[C@@H](O[C@H]8[C@H](O)[C@@H](O)[C@@H](O[C@H]1[C@H](O)[C@H]2O)O[C@@H]8CO)O[C@@H]7CO)O[C@@H]6CO)O[C@@H]5CO)O[C@@H]4CO)O[C@@H]3CO` [β-CD, cycloheptaamylose, reference compound], for which the Solubility in water in data set [4] was 20 mg/mL (≈ 17.6 mM).
As for `OC[C@H]1O[C@@](CO)(OC[C@H]2O[C@@H]3O[C@H]4[C@H](O)[C@@H](O)[C@@H](O[C@H]5[C@H](O)[C@@H](O)[C@@H](O[C@H]6[C@H](O)[C@@H](O)[C@@H](O[C@H]7[C@H](O)[C@@H](O)[C@@H](O[C@H]8[C@H](O)[C@@H](O)[C@@H](O[C@H]9[C@H](O)[C@@H](O)[C@@H](O[C@H]2[C@H](O)[C@H]3O)O[C@@H]9CO)O[C@@H]8CO)O[C@@H]7CO)O[C@@H]6CO)O[C@@H]5CO)O[C@@H]4CO)[C@@H](O)[C@@H]1O` [compound 2, 6-O-(β-D-fructofuranosyl) cycloheptaamylose], the inhibition of invertase result in the data set with invertase [2] is “demonstrated inhibition of invertase”. For the same compound, the “ability to solubilize sparingly soluble compounds by inclusion, vs parent cyclodextrins” value in data set [1] (general description) was “increased ability to solubilize”. Further, the hydrolysis by invertase result with invertase [3] is recorded as “unaffected by invertase”. Further, the Solubility in water in data set [4] was found to be 1136 mg/mL (≈ 876 mM).
Turning to `OC[C@H]1O[C@@](CO)(O[C@H]2O[C@H](CO)[C@@H](O)[C@H](O)[C@H]2O)[C@@H](O)[C@@H]1O` [sucrose, reference compound], in the data set on invertase [3], the hydrolysis by invertase entry is on record as “complete hydrolysis”.
In data set [4], `OC[C@H]1O[C@@H]2O[C@H]3[C@H](O)[C@@H](O)[C@@H](O[C@H]4[C@H](O)[C@@H](O)[C@@H](O[C@H]5[C@H](O)[C@@H](O)[C@@H](O[C@H]6[C@H](O)[C@@H](O)[C@@H](O[C@H]7[C@H](O)[C@@H](O)[C@@H](O[C@H]1[C@H](O)[C@H]2O)O[C@@H]7CO)O[C@@H]6CO)O[C@@H]5CO)O[C@@H]4CO)O[C@@H]3CO` [α-CD, cyclohexaamylose, reference compound] gave a Solubility in water of 126 mg/mL (≈ 130 mM).
